Earlier results on one compound are cited in patent US6713048B2, “Δ9 tetrahydrocannabinol (Δ9 THC) solution metered dose inhalers and methods of use” (Virginia Commonwealth University, priority 1998, dated 2004).

In series [1] the test system is healthy and asthmatic subjects. The note with it: aerosolized Δ^9-THC from MDI, cited from earlier work.
The subject of series [2] is Spasticity related to multiple sclerosis. The following applies: oral 5 to 15 mg THC; 8 patients, single blind; cited from earlier work.
Series [3] deals with AIDS-associated anorexia and cachexia. The following applies: oral 2.5 mg THC once or twice daily increasing to 20 mg daily; 94 patients; 12 months; cited from earlier work.

Molecules are shown by their SMILES.

With `CCCCCc1cc(O)c2c(c1)OC(C)(C)[C@@H]1CCC(C)=C[C@@H]21` (relative stereo) [Δ^9 THC, (6aR-trans)-6a,7,8,10a-tetrahydro-6,6,9-trimethyl-3-pentyl-6H-dibenzo[b,d]-pyran-1-ol], the “systemic side effects (increased heart rate, subjective reports of being 'high')” value in series [1] (healthy patients, at higher doses) is on record as “substantial systemic side effects”. Besides, the “bronchial effect in healthy patients” value in series [1] (healthy patients) was “bronchodilation was seen”. In addition, the “bronchial effect in asthmatic patients” value in series [1] (some asthmatic patients) is reported as “bronchoconstriction occurred”. In series [2], the “patients with both objective and subjective improvement” value is listed as “tremor. 2 of 8 patients had”; the “patients with mild subjective improvement in tremor” value is 5 of 8 patients had mild. For the same compound, in series [3], the “appetite compared to controls” value is “improved appetite and only”; the “weight compared to controls” value is “tended to increase weight”.
